Assay results reported in patent US20080090734A1, “DRUG SCREENING AND TARGET IDENTIFICATION USING SPR IMAGING OF TARGET PROTEIN ARRAYS” (The Trustees of California State University, priority 2006, published 2008).

Tests used:
Assay in all cases: Antibiotic susceptibility profile
Assay type in all cases: cell-based, Acinetobacter baumannii
Parameters in all cases: key: Resistance; Intermediate; Susceptible
[1] = tested on: A. baumannii clinical isolate LAC 08
Excerpt: (§1) We obtained over thirty clinical isolates of A. baumannii from nosocomial infections in New York City and Los Angeles. […] Only antibiotics with breakpoints for A. baumannii were used. […] Isolates LA 01 to 20 were acquired from Los Angels County while NY-A to NY-H were obtained from New York City.
(§2) Antibiotic susceptibility profiles of clinical isolates of A. baumannii and reference strains. R, I, and S denote Resistance, Intermediate and Susceptible, respectively. Genetic Profiling of Clinical Isolates of A. baumannii

[2] = tested on: A. baumannii clinical isolate NY C
Excerpt: as §1, §2

[3] = tested on: A. baumannii reference strain 17978; conditions: strain 17978 (ATCC)
Excerpt: as §1, §2

[4] = tested on: A. baumannii clinical isolate LAC 20
Excerpt: as §1, §2

[5] = tested on: A. baumannii clinical isolate LAC 01
Excerpt: as §1, §2

[6] = tested on: A. baumannii clinical isolate LAC 18
Excerpt: as §1, §2

[7] = tested on: A. baumannii clinical isolate NY G
Excerpt: as §1, §2

[8] = tested on: A. baumannii clinical isolate LAC 10
Excerpt: as §1, §2

[9] = tested on: A. baumannii clinical isolate NY E
Excerpt: as §1, §2

[10] = tested on: A. baumannii clinical isolate LAC 07
Excerpt: as §1, §2

[11] = tested on: A. baumannii reference strain 19606; conditions: strain 19606 (ATCC)
Excerpt: as §1, §2

[12] = tested on: A. baumannii reference strain SDF
Excerpt: as §1, §2

[13] = tested on: A. baumannii clinical isolate LAC 02
Excerpt: as §1, §2

[14] = tested on: A. baumannii clinical isolate LAC 16
Excerpt: as §1, §2

[15] = tested on: A. baumannii clinical isolate LAC 12
Excerpt: as §1, §2

[16] = tested on: A. baumannii clinical isolate LAC 14
Excerpt: as §1, §2

[17] = tested on: A. baumannii clinical isolate LAC 03
Excerpt: as §1, §2

[18] = tested on: A. baumannii clinical isolate LAC 17
Excerpt: as §1, §2

[19] = tested on: A. baumannii clinical isolate NY F
Excerpt: as §1, §2

[20] = tested on: A. baumannii clinical isolate NY D
Excerpt: as §1, §2

[21] = tested on: A. baumannii reference strain 15839; conditions: strain 15839 (ATCC)
Excerpt: as §1, §2

[22] = tested on: A. baumannii clinical isolate NY A
Excerpt: as §1, §2

[23] = tested on: A. baumannii clinical isolate LAC 15
Excerpt: as §1, §2

[24] = tested on: A. baumannii clinical isolate NY H
Excerpt: as §1, §2

[25] = tested on: A. baumannii clinical isolate LAC 09
Excerpt: as §1, §2

[26] = tested on: A. baumannii reference strain AYE
Excerpt: as §1, §2

[27] = tested on: A. baumannii clinical isolate LAC 05
Excerpt: as §1, §2

[28] = tested on: A. baumannii clinical isolate LAC 06
Excerpt: as §1, §2

[29] = tested on: A. baumannii clinical isolate LAC 13
Excerpt: as §1, §2

[30] = tested on: A. baumannii clinical isolate LAC 19
Excerpt: as §1, §2

[31] = tested on: A. baumannii clinical isolate LAC 04
Excerpt: as §1, §2

[32] = tested on: A. baumannii clinical isolate LAC 11
Excerpt: as §1, §2

[33] = tested on: A. baumannii clinical isolate NY B
Excerpt: as §1, §2

SMILES	Antibiotic susceptibility [1]	Antibiotic susceptibility [2]	Antibiotic susceptibility [3]	Antibiotic susceptibility [4]	Antibiotic susceptibility [5]	Antibiotic susceptibility [6]	Antibiotic susceptibility [7]	Antibiotic susceptibility [8]	Antibiotic susceptibility [9]	Antibiotic susceptibility [10]	Antibiotic susceptibility [11]	Antibiotic susceptibility [12]	Antibiotic susceptibility [13]	Antibiotic susceptibility [14]	Antibiotic susceptibility [15]	Antibiotic susceptibility [16]	Antibiotic susceptibility [17]	Antibiotic susceptibility [18]	Antibiotic susceptibility [19]	Antibiotic susceptibility [20]	other results
NCC[C@H](O)C(=O)N[C@@H]1C[C@H](N)[C@@H](O[C@H]2O[C@H](CN)[C@@H](O)[C@H](O)[C@H]2O)[C@H](O)[C@H]1O[C@H]1O[C@H](CO)[C@@H](O)[C@H](N)[C@H]1O [AMK, Amikacin]	I	R	S	I	S	I	S	R	S	R	S	S	I	R	S	S	I	I	R	R	Antibiotic susceptibility [21]: R; Antibiotic susceptibility [22]: I; Antibiotic susceptibility [23]: R; Antibiotic susceptibility [24]: R; Antibiotic susceptibility [25]: R; Antibiotic susceptibility [26]: R; Antibiotic susceptibility [27]: R; Antibiotic susceptibility [28]: S; Antibiotic susceptibility [29]: S; Antibiotic susceptibility [30]: R; Antibiotic susceptibility [31]: I; Antibiotic susceptibility [32]: S; Antibiotic susceptibility [33]: I
C[C@H]1c2cccc(O)c2C(=O)C2=C(O)[C@]3(O)C(=O)C(C(N)=O)=C(O)[C@@H](N(C)C)[C@@H]3[C@@H](O)[C@@H]21 [DOX, Doxycycline]	S	S	S	S	S	S	R	S	R	S	S	S	S	S	R	R	S	S	S	S	Antibiotic susceptibility [21]: R; Antibiotic susceptibility [22]: S; Antibiotic susceptibility [23]: S; Antibiotic susceptibility [24]: S; Antibiotic susceptibility [25]: S; Antibiotic susceptibility [26]: S; Antibiotic susceptibility [27]: S; Antibiotic susceptibility [28]: S; Antibiotic susceptibility [29]: R; Antibiotic susceptibility [30]: S; Antibiotic susceptibility [31]: S; Antibiotic susceptibility [32]: R; Antibiotic susceptibility [33]: R
CO/N=C(\C(=O)N[C@@H]1C(=O)N2C(C(=O)[O-])=C(C[N+]3(C)CCCC3)CS[C@H]12)c1csc(N)n1 [FEP, Cefepime]	I	R	S	R	R	R	R	R	R	R	I	I	R	R	R	R	R	R	R	R	Antibiotic susceptibility [21]: I; Antibiotic susceptibility [22]: I; Antibiotic susceptibility [23]: R; Antibiotic susceptibility [24]: R; Antibiotic susceptibility [25]: R; Antibiotic susceptibility [26]: R; Antibiotic susceptibility [27]: I; Antibiotic susceptibility [28]: S; Antibiotic susceptibility [29]: R; Antibiotic susceptibility [30]: R; Antibiotic susceptibility [31]: I; Antibiotic susceptibility [32]: R; Antibiotic susceptibility [33]: R
